Experiment in all cases: NCI anticancer screen, dose series, 48 h
Experiment [1] deals with OVCAR-3 ovarian.
In experiment [2] the test system is A498 renal.
The test system of experiment [3] is HCT-15 colon.
For experiment [4], the system named is KM12 colon.
Experiment [5] has as its system OVCAR-5 ovarian.
The test system of experiment [6] is UACC-257 melanoma.
Experiment [7] relates to SF-268 CNS.
For experiment [8], the system named is ACHN renal.
The subject of experiment [9] is U251 CNS.
Experiment [10] relates to M14 melanoma.
Experiment [11] has as its system NCI/ADR-RES ovarian.
In experiment [12] the test system is OVCAR-8 ovarian.
The subject of experiment [13] is SW-620 colon.
Experiment [14] concerns CAKI-1 renal.
The subject of experiment [15] is OVCAR-4 ovarian.
The subject of experiment [16] is NCI-H226 lung.
The test system of experiment [17] is MCF7 breast.
For experiment [18], the system named is HCC-2998 colon.
Experiment [19] concerns SNB-19 CNS.
Experiment [20] concerns RPMI-8226 leukemia.

Structures are written as SMILES.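 Grown in 96-well plates, cells were treated for 48 hours with each compound at five concentrations. Insufficient inhibition: endpoint recorded as highest concentration tested. Definition used: TGI = concentration required for complete inhibition of growth.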 Some results are limits rather than exact numbers.

On to `O=C(N/N=C/c1ccccc1O)c1ccccc1Nc1ccccc1C(=O)N/N=C/c1ccccc1O`, for which the TGI in experiment [1], in [2], in experiment [3], in [4], in experiment [5] and in experiment [6] was over 100 µM throughout. The TGI in experiment [7] is 2.28 µM; in [8], over 100 µM; in [9], over 100 µM; in experiment [10] it was 6.35 µM; in experiment [11] it was 5.44 µM; in experiment [12], 11.7 µM. For the same compound, the TGI in experiment [13] was over 100 µM; in experiment [14], over 100 µM; in [15] it was over 100 µM; in experiment [16], 3.79 µM; in experiment [17] it was over 100 µM; in experiment [18] it was over 100 µM. Moreover, the TGI in experiment [19] is over 100 µM.

`CCOC(=O)/C=C/[C@H](O)[C@@H](O)/C=C/C(=O)OCC`: the TGI is 64.7 µM in experiment [1]; over 100 µM in [2]; 59.7 µM in [3]; 47.6 µM in experiment [4]; over 100 µM in [5]; over 100 µM in [6]. The TGI in [7] was over 100 µM; in experiment [8], 60 µM; in [9] it was over 100 µM; in experiment [11], over 100 µM; in [12] it was 44.8 µM; in experiment [13] it was 40.6 µM. Moreover, the TGI in experiment [14] was 45.8 µM; in experiment [15], over 100 µM; in experiment [16], over 100 µM; in experiment [20], 44.6 µM; in experiment [17] it was 79.7 µM; in experiment [18] it was over 100 µM. Further, the TGI in experiment [19] was 58.2 µM.

With `Cc1c(N/C=C(\C#N)C(=O)c2ccc(Cl)cc2)c(=O)n(-c2ccccc2)n1C`, the TGI in experiment [1], in experiment [2], in experiment [3], in [4], in [5] and in experiment [6] was over 100 µM each time. Further, the TGI in [9], in experiment [10], in experiment [11], in [12], in experiment [13] and in experiment [14] was over 100 µM each time. The TGI in [15], in [16], in [20], in [17], in experiment [18] and in [19] was over 100 µM each time.

For `NC(Cc1ccc(S(=O)(=O)O)cc1)C(=O)NC(Cc1ccc(S(=O)(=O)O)cc1)C(=O)NC(Cc1ccc(S(=O)(=O)O)cc1)C(=O)O` (stereo not given), the TGI in experiment [1], in experiment [2], in experiment [3], in [4], in experiment [5] and in experiment [6] was over 100 µM throughout. For the same compound, the TGI in experiment [7], in experiment [8], in [9], in [10], in experiment [11] and in experiment [12] was over 100 µM throughout. The TGI in experiment [13], in experiment [14], in [15], in experiment [16], in [20] and in experiment [17] was over 100 µM each time. Also, the TGI in experiment [18] is over 100 µM.

For the compound `Cc1ccc(/C=C2\CCCC(CN(C)C)C2=O)cc1` (stereo not given), the TGI is 3.22 µM in [1]; 27.4 µM in [2]; 4.23 µM in experiment [3]; 3.57 µM in [4]; 29.5 µM in experiment [5]; 3.99 µM in [6]. In addition, the TGI in [8] was 7.19 µM; in [9], 26.4 µM; in experiment [10] it was 3.31 µM; in [11], 17.1 µM; in experiment [13], 2.88 µM; in experiment [14] it was 2.88 µM. The TGI worked out at 3.8 µM in [15]; 6.82 µM in [16]; 1.92 µM in experiment [17]; 27.4 µM in [18]; 30.1 µM in [19].

For the compound `Nc1c(N2CCOCC2)c(=O)nc2[nH]/c(=C\c3ccccc3)c(=O)n12`, the TGI in experiment [2], in [3], in [4], in [5], in experiment [6] and in experiment [7] was over 100 µM throughout. The TGI in experiment [8], in experiment [9], in [10], in experiment [11], in [12] and in experiment [13] was over 100 µM in each case. Also, the TGI in experiment [14], in experiment [15], in experiment [16], in experiment [20], in [17] and in [18] was over 100 µM in each case. Besides, the TGI in [19] is over 100 µM.

For `Cc1nc2ccc(NC3OC(CO)C(O)C(O)C3O)cc2c(=O)n1-c1ccccc1` (stereo not given), the TGI in [1], in [2], in [3], in experiment [4], in experiment [5] and in experiment [6] was over 100 µM throughout. Also, the TGI in [7], in experiment [8], in experiment [9], in experiment [11], in experiment [12] and in [13] was over 100 µM each time. The TGI in experiment [14], in experiment [15], in [16], in experiment [20], in experiment [17] and in experiment [18] was over 100 µM each time. This compound had a TGI in [19] of over 100 µM.

These data come from PubChem BioAssay (NCI).
